Data from patent US20250312499A1, “KISSPEPTIN RECEPTOR (KISS1R) TARGETED THERAPEUTICS AND USES THEREOF” (priority 2024, published 2025).
Numbered stars: 1 amine (or outer) side, 2 acyl side, 3 side chain; on linkers, the order of the positions; unused ones are H or OH. Square brackets hold non-standard residues; d marks the D form. Peptide text beside a SMILES is read from it. * marks the point of attachment. DOTA = O=C(O)CN1CCN(CC(=O)O)CCN(CC(=O)*)CCN(CC(=O)O)CC1; Gly(N-(3-F-4-Me-benzyl)) = Cc1ccc(CNCC(=O)*)cc1F; Butanoyl(4-(4-I-phenyl)) = O=C(CCCc1ccc(I)cc1)*; Gly(Nα-4-MeO-benzyl) = COc1ccc(CNCC(=O)*)cc1; Api(1-amidino) = N=C(N)N1CCC(N)(C(=O)O)CC1; X14 = O=C([C@H]1CC[C@@H](CN[*:1])CC1)[*:2]; Bip = N[C@@H](Cc1ccc(-c2ccccc2)cc1)C(=O)O; Hydrocinnamoyl(4-I) = O=C(CCc1ccc(I)cc1)*; Phe(3-F) = N[C@@H](Cc1cccc(F)c1)C(=O)O; 2Nal = N[C@@H](Cc1ccc2ccccc2c1)C(=O)O; d2Nal = N[C@H](Cc1ccc2ccccc2c1)C(=O)O; NBzl(4-I)Gly = O=C(O)CNCc1ccc(I)cc1; dCya = N[C@H](CS(=O)(=O)O)C(=O)O; 4Pal = N[C@@H](Cc1ccncc1)C(=O)O; d4Pal = N[C@H](Cc1ccncc1)C(=O)O; Cha = N[C@@H](CC1CCCCC1)C(=O)O; Octanoyl = CCCCCCCC(=O)*; Api = NC1(C(=O)O)CCNCC1; PEG2 = NCCOCCOCCC(=O)O; AEEA = NCCOCCOCC(=O)O; Ahx = NCCCCCC(=O)O; azaGly = NNC(=O)O; Sar = CNCC(=O)O

Each compound was assayed against human kisspeptin receptor (Homo sapiens (Human), UniProt Q969F8) (assay: Human KISS1R binding assay (membrane competition binding)). Details: 90 min at room temperature; competition with 0.2 nM [125I]-metastin (45-54); Flp-In T-Rex 293 kisspeptin membranes; metal complexes nonradioactive Ga, In, Lu; read-out: hKiSSR Binding Ki (90 min).
Sequence of human kisspeptin receptor (Q969F8 whole entry): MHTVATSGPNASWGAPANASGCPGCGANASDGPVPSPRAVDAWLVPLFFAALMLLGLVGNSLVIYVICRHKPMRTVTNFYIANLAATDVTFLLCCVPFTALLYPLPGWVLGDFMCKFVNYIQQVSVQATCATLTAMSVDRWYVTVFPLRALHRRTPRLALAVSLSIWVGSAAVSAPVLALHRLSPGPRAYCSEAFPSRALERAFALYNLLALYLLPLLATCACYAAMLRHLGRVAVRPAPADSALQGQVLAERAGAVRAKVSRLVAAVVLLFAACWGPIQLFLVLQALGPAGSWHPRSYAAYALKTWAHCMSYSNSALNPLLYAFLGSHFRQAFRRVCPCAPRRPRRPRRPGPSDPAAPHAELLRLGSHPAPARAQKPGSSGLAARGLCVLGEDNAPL
Summary of the method: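 Radioligand competition: 0.2 nM [125I]-metastin (45-54) displaced by test ligand (usually 0–10,000 nM) over 90 min at room temperature, pH 7.4 buffer with 0.1% BSA. Receptor source is crude membrane (5–10 μg) from tetracycline-induced Flp-In T-Rex 293 cells. Bound label filtered and counted; Ki from non-linear regression.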
For `Cc1ccc(CNCC(=O)N2CCC(NC(=O)[C@H](CC(C)C)NC(=O)NNC(=O)[C@H](Cc3cccc(F)c3)NC(=O)[C@@H](NC(=O)[C@H](CC(N)=O)NC(=O)[C@H](Cc3c[nH]c4ccccc34)NC(=O)[C@@H](Cc3ccc(O)cc3)NC(=O)CCCCCNC(=O)CN3CCN(CC(=O)O)CCN(CC(=O)O)CCN(CC(=O)O)CC3)[C@@H](C)O)(C(=O)N[C@@H](Cc3c[nH]c4ccccc34)C(N)=O)CC2)cc1F` [Compound 35] ({DOTA-Ahx}-[dY]WNT[Phe(3-F)][azaGly]L[Api](Gly(N-(3-F-4-Me-benzyl)))W-NH2), the Ki was < 10 nM.
`CC(=O)N[C@@H](Cc1ccccc1)C(=O)NNC(=O)N[C@@H](CC(C)C)C(=O)NC1(C(=O)N[C@@H](Cc2c[nH]c3ccccc23)C(N)=O)CCN(C(=O)CNCc2ccc(C)c(F)c2)CC1` [Compound 392] (Ac-F[azaGly]L[Api](Gly(N-(3-F-4-Me-benzyl)))W-NH2) was tested, and the Ki was < 10 nM.
`CC(C)C[C@H](NC(=O)NNC(=O)[C@H](Cc1ccccc1)NC(=O)[C@@H](NC(=O)[C@H](CC(N)=O)NC(=O)[C@@H](CCCCNC(=O)CN1CCN(CC(=O)O)CCN(CC(=O)O)CCN(CC(=O)O)CC1)NC(=O)[C@@H](Cc1ccc(O)cc1)NC(=O)CCOCCOCCNC(=O)CCc1ccc(I)cc1)[C@@H](C)O)C(=O)NC1(C(=O)N[C@@H](Cc2c[nH]c3ccccc23)C(N)=O)CCN(C(=N)N)CC1` [Compound 334] ({Hydrocinnamoyl(4-I)-PEG2}-[dY][dK](DOTA)NTF[azaGly]L[Api(1-amidino)]W-NH2) was tested, and the Ki was < 10 nM.
For `Cc1ccc(CNCC(=O)N2CCC(NC(=O)[C@H](CC(C)C)NC(=O)NNC(=O)[C@H](Cc3ccccc3)NC(=O)[C@@H](NC(=O)[C@H](CC(N)=O)NC(=O)[C@@H](Cc3c[nH]c4ccccc34)NC(=O)[C@H](CC(N)=O)NC(=O)[C@@H](Cc3ccc(O)cc3)NC(=O)CCCCCNC(=O)CN3CCN(CC(=O)O)CCN(CC(=O)O)CCN(CC(=O)O)CC3)[C@@H](C)O)(C(=O)N[C@@H](Cc3ccncc3)C(N)=O)CC2)cc1F` [Compound 106] ({DOTA-Ahx}-[dY]N[dW]NTF[azaGly]L[Api](Gly(N-(3-F-4-Me-benzyl)))[4Pal]-NH2), the Ki was < 10 nM.
`CNCC(=O)N1CCC(NC(=O)[C@H](CC(C)C)NC(=O)NNC(=O)[C@H](Cc2ccccc2)NC(=O)[C@@H](NC(=O)[C@H](CC(N)=O)NC(=O)[C@@H](Cc2ccc3ccccc3c2)NC(=O)[C@@H](Cc2ccc(O)cc2)NC(=O)CCCc2ccc(I)cc2)[C@@H](C)O)(C(=O)N[C@@H](Cc2ccccc2)C(N)=O)CC1` [Compound 398] ({Butanoyl(4-(4-I-phenyl))}-[dY][d2Nal]NTF[azaGly]L[Api](Sar)F-NH2) was tested, and the Ki was < 10 nM.
For `CC(C)C[C@H](NC(=O)NNC(=O)[C@H](Cc1ccccc1)NC(=O)[C@@H](NC(=O)[C@H](CC(N)=O)NC(=O)[C@@H](Cc1ccc2ccccc2c1)NC(=O)[C@@H](Cc1ccc(O)cc1)NC(=O)CCCCCNC(=O)CN1CCN(CC(=O)O)CCN(CC(=O)O)CCN(CC(=O)O)CC1)[C@@H](C)O)C(=O)NC1(C(=O)N[C@H](Cc2c[nH]c3ccccc23)C(N)=O)CCN(C(=O)CNCc2ccc(I)cc2)CC1` [Compound 371] ({DOTA-Ahx}-[dY][d2Nal]NTF[azaGly]L[Api](NBzl(4-I)Gly)[dW]-NH2), the Ki was < 10 nM.
With `CC(C)C[C@H](NC(=O)NNC(=O)[C@H](Cc1ccc(-c2ccccc2)cc1)NC(=O)[C@@H](NC(=O)[C@H](CC(N)=O)NC(=O)[C@@H](Cc1c[nH]c2ccccc12)NC(=O)[C@@H](Cc1ccc(O)cc1)NC(=O)CCCCCNC(=O)CN1CCN(CC(=O)O)CCN(CC(=O)O)CCN(CC(=O)O)CC1)[C@@H](C)O)C(=O)NC1(C(=O)N[C@@H](Cc2c[nH]c3ccccc23)C(N)=O)CCN(C(=N)N)CC1` [Compound 271] ({DOTA-Ahx}-[dY][dW]NT[Bip][azaGly]L[Api(1-amidino)]W-NH2) the Ki was 10 to 100 nM.
For `CCCCCCCC(=O)N[C@H](Cc1ccc(O)cc1)C(=O)N[C@H](CCCCNC(=O)CN1CCN(CC(=O)O)CCN(CC(=O)O)CCN(CC(=O)O)CC1)C(=O)N[C@@H](CC(N)=O)C(=O)N[C@H](C(=O)N[C@@H](CC1CCCCC1)C(=O)NNC(=O)N[C@@H](CC(C)C)C(=O)NC1(C(=O)N[C@H](Cc2c[nH]c3ccccc23)C(N)=O)CCN(C(=O)CNC)CC1)[C@@H](C)O` [Compound 355] (Octanoyl-[dY][dK](DOTA)NT[Cha][azaGly]L[Api](Sar)[dW]-NH2), the Ki was < 10 nM.
`Cc1ccc(CNCC(=O)N2CCC(NC(=O)[C@H](CC(C)C)NC(=O)NNC(=O)[C@H](Cc3ccccc3)NC(=O)[C@@H](CC(N)=O)NC(=O)[C@@H](CC(N)=O)NC(=O)CN3CCN(CC(=O)O)CCN(CC(=O)O)CCN(CC(=O)O)CC3)(C(=O)N[C@@H](Cc3c[nH]c4ccccc34)C(N)=O)CC2)cc1F` [Compound 18] ({DOTA}-[dN][dN]F[azaGly]L[Api](Gly(N-(3-F-4-Me-benzyl)))W-NH2) gave a Ki of 10 to 100 nM.
With `COc1ccc(CNCC(=O)N2CCC(NC(=O)[C@H](CC(C)C)NC(=O)NNC(=O)[C@H](Cc3ccccc3)NC(=O)[C@@H](NC(=O)[C@H](CC(N)=O)NC(=O)[C@@H](Cc3ccncc3)NC(=O)[C@@H](Cc3ccc(O)cc3)NC(=O)CCCCCNC(=O)CN3CCN(CC(=O)O)CCN(CC(=O)O)CCN(CC(=O)O)CC3)[C@@H](C)O)(C(=O)N[C@@H](Cc3ccncc3)C(N)=O)CC2)cc1` [Compound 299] ({DOTA-Ahx}-[dY][d4Pal]NTF[azaGly]L[Api](Gly(Nα-4-MeO-benzyl))[4Pal]-NH2) the Ki was < 10 nM.
In the case of `Cc1ccc(CNCC(=O)N2CCC(NC(=O)[C@H](CC(C)C)NC(=O)NNC(=O)[C@H](Cc3ccccc3)NC(=O)CCCCCNC(=O)[C@@H](CS(=O)(=O)O)NC(=O)[C@@H](CS(=O)(=O)O)NC(=O)[C@@H](CS(=O)(=O)O)NC(=O)CN3CCN(CC(=O)O)CCN(CC(=O)O)CCN(CC(=O)O)CC3)(C(=O)N[C@@H](Cc3c[nH]c4ccccc34)C(N)=O)CC2)cc1F` [Compound 131] ({DOTA}-[dCya][dCya][dCya][Ahx]F[azaGly]L[Api](Gly(N-(3-F-4-Me-benzyl)))W-NH2), the Ki is reported as < 10 nM.
`Cc1ccc(CNCC(=O)N2CCC(NC(=O)[C@H](CC(C)C)NC(=O)NNC(=O)[C@H](Cc3ccccc3)NC(=O)[C@@H](NC(=O)[C@H](CC(N)=O)NC(=O)[C@H](Cc3ccc4ccccc4c3)NC(=O)[C@@H](Cc3ccc(O)cc3)NC(=O)COCCOCCNC(=O)CN3CCN(CC(=O)O)CCN(CC(=O)O)CCN(CC(=O)O)CC3)[C@@H](C)O)(C(=O)N[C@@H](Cc3c[nH]c4ccccc34)C(N)=O)CC2)cc1F` [Compound 58] ({DOTA-AEEA}-[dY][2Nal]NTF[azaGly]L[Api](Gly(N-(3-F-4-Me-benzyl)))W-NH2) was tested, and the Ki was < 10 nM.
`CC(C)C[C@H](NC(=O)NNC(=O)[C@H](Cc1ccccc1)NC(=O)[C@@H](NC(=O)[C@H](CC(N)=O)NC(=O)[C@H](Cc1ccncc1)NC(=O)[C@@H](Cc1ccc(O)cc1)NC(=O)CN1CCN(CC(=O)O)CCN(CC(=O)O)CCN(CC(=O)O)CC1)[C@@H](C)O)C(=O)NC1(C(=O)N[C@@H](Cc2ccncc2)C(N)=O)CCN(C(=N)N)CC1` [Compound 273] ({DOTA}-[dY][4Pal]NTF[azaGly]L[Api(1-amidino)][4Pal]-NH2) showed a Ki of 10 to 100 nM.
`CNCC(=O)N1CCC(NC(=O)[C@H](CC(C)C)NC(=O)NNC(=O)[C@H](Cc2ccccc2)NC(=O)[C@@H](NC(=O)[C@H](CC(N)=O)NC(=O)[C@@H](Cc2ccc3ccccc3c2)NC(=O)[C@H](N)Cc2ccc(O)cc2)[C@@H](C)O)(C(=O)N[C@@H](Cc2c[nH]c3ccccc23)C(N)=O)CC1` [Compound 408] (H-[dY][d2Nal]NTF[azaGly]L[Api](Sar)W-NH2) was tested, and the Ki was < 10 nM.
For `Cc1ccc(CNCC(=O)N2CCC(NC(=O)[C@H](CC(C)C)NC(=O)NNC(=O)[C@H](Cc3cccc(F)c3)NC(=O)[C@@H](NC(=O)[C@H](CC(N)=O)NC(=O)[C@H](CCC(=O)O)NC(=O)[C@H]3CC[C@@H](CNC(=O)CN4CCN(CC(=O)O)CCN(CC(=O)O)CCN(CC(=O)O)CC4)CC3)[C@@H](C)O)(C(=O)N[C@@H](Cc3ccncc3)C(N)=O)CC2)cc1F` [Compound 170] ({DOTA}-[X14]ENT[Phe(3-F)][azaGly]L[Api](Gly(N-(3-F-4-Me-benzyl)))[4Pal]-NH2), the Ki was < 10 nM.
For `Cc1ccc(CNCC(=O)N2CCC(NC(=O)[C@H](CC(C)C)NC(=O)NNC(=O)[C@H](Cc3ccccc3)NC(=O)[C@@H](NC(=O)[C@H](CC(N)=O)NC(=O)[C@H](Cc3ccc4ccccc4c3)NC(=O)[C@@H](Cc3ccc(O)cc3)NC(=O)CCCCCNC(=O)CN3CCN(CC(=O)O)CCN(CC(=O)O)CCN(CC(=O)O)CC3)[C@@H](C)O)(C(=O)N[C@@H](Cc3c[nH]c4ccccc34)C(N)=O)CC2)cc1F` [Compound 118] ({DOTA-Ahx}-[dY][2Nal]NTF[azaGly]L[Api](Gly(N-(3-F-4-Me-benzyl)))W-NH2), the Ki was < 10 nM.
`Cc1ccc(CNCC(=O)N2CCC(NC(=O)c3ccc(-c4ccccc4)c(OCCNNC(=O)[C@H](Cc4ccccc4)NC(=O)CCCCCNC(=O)CN4CCN(CC(=O)O)CCN(CC(=O)O)CCN(CC(=O)O)CC4)c3)(C(=O)N[C@@H](Cc3c[nH]c4ccccc34)C(N)=O)CC2)cc1F` [Compound 280] was tested, and the Ki was > 100 nM.
For `CNCC(=O)N1CCC(NC(=O)[C@H](CC(C)C)NC(=O)NNC(=O)[C@H](Cc2ccccc2)NC(=O)[C@@H](NC(=O)[C@H](CC(N)=O)NC(=O)[C@H](Cc2ccc(-c3ccccc3)cc2)NC(=O)[C@@H](Cc2ccc(O)cc2)NC(=O)CCCCCNC(=O)CN2CCN(CC(=O)O)CCN(CC(=O)O)CCN(CC(=O)O)CC2)[C@@H](C)O)(C(=O)N[C@H](Cc2c[nH]c3ccccc23)C(N)=O)CC1` [Compound 389] ({DOTA-Ahx}-[dY][Bip]NTF[azaGly]L[Api](Sar)[dW]-NH2), the Ki was < 10 nM.
In the case of `Cc1ccc(CNCC(=O)N2CCC(NC(=O)[C@H](CC(C)C)n3cc([C@H](Cc4ccccc4)NC(=O)CCCCCNC(=O)CN4CCN(CC(=O)O)CCN(CC(=O)O)CCN(CC(=O)O)CC4)nn3)(C(=O)N[C@@H](Cc3c[nH]c4ccccc34)C(N)=O)CC2)cc1F` [Compound 9], the Ki is reported as < 10 nM.
